Assay results reported in PubChem BioAssay AID256 (DTP/NCI, 2004).
“And” between values parts separate entries of the source, which are not always exact repeats. Identical values can stand only once. Toxic doses and inconclusive results are not listed. The calls were made as follows: active = survival T/C of 150% or more; inactive = T/C below 125% in these data.

Test system: CD2F1 mice, L1210 leukemia ip, survival T/C
Assay: NCI In Vivo Anticancer Drug Screen. Data for tumor model L1210 Leukemia (intraperitoneal) in CD2F1 (CDF1) mice
Conditions: endpoint: mean survival time, higher = longer survival
In short: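 Mice carrying a transplanted tumor received test compound or vehicle alone. The value is the measurement in the treated group divided by that in the vehicle-treated control group.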

[1] = dose: 75.0 mg/kg/injection, schedule: Q01DX001 (ip), vehicle: saline
[2] = dose: 150.0 mg/kg/injection, schedule: Q01DX001 (ip), vehicle: saline
[3] = dose: 100.0 mg/kg/injection, schedule: Q01DX009 (ip), vehicle: saline with Tween-80
[4] = dose: 100.0 mg/kg/injection, schedule: Q04DX003 (ip), vehicle: saline with Tween-80
[5] = dose: 200.0 mg/kg/injection, schedule: Q01DX009 (ip), vehicle: saline with Tween-80
[6] = dose: 200.0 mg/kg/injection, schedule: Q04DX003 (ip), vehicle: saline with Tween-80
[7] = dose: 400.0 mg/kg/injection, schedule: Q04DX003 (ip), vehicle: saline with Tween-80
[8] = dose: 100.0 mg/kg/injection, schedule: Q01DX001 (ip), vehicle: saline with Tween-80
[9] = dose: 200.0 mg/kg/injection, schedule: Q01DX001 (ip), vehicle: saline with Tween-80
[10] = dose: 12.5 mg/kg/injection, schedule: Q01DX009 (ip), vehicle: other
[11] = dose: 25.0 mg/kg/injection, schedule: Q01DX009 (ip), vehicle: other
[12] = dose: 50.0 mg/kg/injection, schedule: Q01DX009 (ip), vehicle: other
[13] = dose: 100.0 mg/kg/injection, schedule: Q01DX009 (ip), vehicle: other
[14] = dose: 200.0 mg/kg/injection, schedule: Q01DX009 (ip), vehicle: other
[15] = dose: 100.0 mg/kg/injection, schedule: Q04DX002 (ip), vehicle: saline with Tween-80
[16] = dose: 200.0 mg/kg/injection, schedule: Q04DX002 (ip), vehicle: saline with Tween-80
[17] = dose: 400.0 mg/kg/injection, schedule: Q04DX002 (ip), vehicle: saline with Tween-80
[18] = dose: 100.0 mg/kg/injection, schedule: Q04DX003 (ip), vehicle: saline
[19] = dose: 200.0 mg/kg/injection, schedule: Q04DX003 (ip), vehicle: saline
[20] = dose: 400.0 mg/kg/injection, schedule: Q04DX003 (ip), vehicle: saline
[21] = dose: 100.0 mg/kg/injection, schedule: Q01DX009 (ip), vehicle: saline
[22] = dose: 200.0 mg/kg/injection, schedule: Q01DX009 (ip), vehicle: saline
[23] = dose: 400.0 mg/kg/injection, schedule: Q01DX009 (ip), vehicle: saline
[24] = dose: 100.0 mg/kg/injection, schedule: Q01DX001 (ip), vehicle: saline
[25] = dose: 200.0 mg/kg/injection, schedule: Q01DX001 (ip), vehicle: saline
[26] = dose: 400.0 mg/kg/injection, schedule: Q01DX001 (ip), vehicle: saline
[27] = dose: 25.0 mg/kg/injection, schedule: Q04DX002 (ip), vehicle: saline with Tween-80
[28] = dose: 50.0 mg/kg/injection, schedule: Q04DX002 (ip), vehicle: saline with Tween-80
[29] = dose: 400.0 mg/kg/injection, schedule: Q01DX001 (ip), vehicle: saline with Tween-80
[30] = dose: 50.0 mg/kg/injection, schedule: Q01DX009 (ip), vehicle: saline with Tween-80

Measured: T/C

Cc1ccc(Cl)cc1S
inactive: [1] 98 % of control | [2] 102 % of control | dose: 300.0 mg/kg/injection, schedule: Q01DX001 (ip), vehicle: saline 103 % of control

CC(=O)OCCc1nnnn1C
inactive: [3] 101 % of control | [4] 104 % of control | [5] 104 % of control | [6] 104 % of control | dose: 400.0 mg/kg/injection, schedule: Q01DX009 (ip), vehicle: saline with Tween-80 104 % of control | [7] 101 % of control

CC(Cc1ccccc1)NC(C)Cc1ccccc1 (centres undefined)
inactive: [4] 98 % of control | [6] 102 % of control

O=C(CCc1ccc(S(=O)(=O)F)cc1)Nc1cccc(-c2nc3nc[nH]c(=O)c3[nH]2)c1
inactive: dose: 50.0 mg/kg/injection, schedule: Q01DX001 (ip), vehicle: saline with Tween-80 94 % of control | [8] 94 % of control | [9] 90 % of control

CC(=O)OCC1OC(OC(C)=O)C(NC(=O)NCCI)C(OC(C)=O)C1OC(C)=O (centres undefined)
inactive: [10] 93 % of control | [11] 95 % of control | [12] 92 % of control | [13] 88 % of control | [14] 98 % of control

CCOc1cc(C)cc(C(=O)O)c1
inactive: [15] 97 % of control | [16] 90 % of control | [17] 97 % of control

NS(=O)(=O)c1ccc(Cl)c2ccccc12
inactive: [8] 93 % of control | [9] 98 % of control

O=C1C=Cc2ccccc2C1=O
inactive: dose: 0.63 mg/kg/injection, schedule: Q01DX009 (ip), vehicle: saline 98 % of control | dose: 1.0 mg/kg/injection, schedule: Q01DX009 (ip), vehicle: saline 105 % of control | dose: 1.25 mg/kg/injection, schedule: Q01DX009 (ip), vehicle: saline 104 % of control | dose: 2.0 mg/kg/injection, schedule: Q01DX009 (ip), vehicle: saline 98 % of control | dose: 2.5 mg/kg/injection, schedule: Q01DX009 (ip), vehicle: saline with Tween-80 110 % of control | dose: 2.5 mg/kg/injection, schedule: Q01DX009 (ip), vehicle: saline 98 % of control | dose: 4.0 mg/kg/injection, schedule: Q01DX009 (ip), vehicle: saline 88 % of control

CCCNC(C)=O
inactive: [18] 97 % of control | [19] 97 % of control | [20] 100 % of control

CCOC(=O)C(OCC)P(=O)(OCC)OCC (centres undefined)
inactive: dose: 25.0 mg/kg/injection, schedule: Q01DX005 (ip), vehicle: water 101 % of control | dose: 50.0 mg/kg/injection, schedule: Q01DX005 (ip), vehicle: water 101 % of control | dose: 100.0 mg/kg/injection, schedule: Q01DX005 (ip), vehicle: water 101 % of control | dose: 200.0 mg/kg/injection, schedule: Q01DX005 (ip), vehicle: water 101 % of control | dose: 400.0 mg/kg/injection, schedule: Q01DX005 (ip), vehicle: water 97 % of control

NCCC(=O)CN
inactive: [21] 110 % of control | [18] 100 % of control | [22] 101 % of control | [19] 107 % of control | [23] 91 % of control | [20] 98 % of control

COC(=O)c1ccncc1
inactive: [21] 102 % of control | [22] 108 % of control | [23] 100 % of control

COc1ccccc1NC(=O)CSC(N)=O
inactive: dose: 50.0 mg/kg/injection, schedule: Q01DX001 (ip), vehicle: saline 98 % of control | [24] 97 % of control | [21] 102 % of control | [18] 94 % of control | [25] 103 % of control | [22] 93 % of control | [19] 91 % of control | [26] 97 % of control | [23] 96 % of control | [20] 91 % of control

COc1cccc(Cc2c[nH]c(=O)[nH]c2=O)c1
inactive: [4] 98 % of control | [6] 100 % of control | [7] 92 % of control

CC(=O)Nc1ncc2ccccc2c1-c1ccc(NC(=O)CN(CCCl)CCCl)cc1
inactive: dose: 25.0 mg/kg/injection, schedule: Q04DX003 (ip), vehicle: other 112 % of control | dose: 50.0 mg/kg/injection, schedule: Q04DX003 (ip), vehicle: other 116 % of control | dose: 100.0 mg/kg/injection, schedule: Q04DX003 (ip), vehicle: other 112 % of control | dose: 200.0 mg/kg/injection, schedule: Q04DX003 (ip), vehicle: other 124 % of control

O=[N+]([O-])c1ccc(SC(=S)N(c2ccccc2)c2ccccc2)c([N+](=O)[O-])c1
inactive: dose: 100.0 mg/kg/injection, schedule: Q01DX001 (ip), vehicle: Klucel (hydroxypropylcellulose) (HPC) 87 % of control | dose: 200.0 mg/kg/injection, schedule: Q01DX001 (ip), vehicle: Klucel (hydroxypropylcellulose) (HPC) 91 % of control | dose: 400.0 mg/kg/injection, schedule: Q01DX001 (ip), vehicle: Klucel (hydroxypropylcellulose) (HPC) 100 % of control

CCNc1nnc(N=Nc2ccccc2)s1
inactive: [27] 91 % of control | [28] 95 % of control | [15] 95 % of control | [16] 88 % of control

COc1ccc(/C=C/C(=O)Oc2cc(O)cc(O)c2)cc1
inactive: dose: 12.5 mg/kg/injection, schedule: Q04DX002 (ip), vehicle: saline with Tween-80 97 % of control | [27] 93 % of control | [28] 101 % of control | [9] 94 % of control | [29] 92 % of control

S=c1nccc[nH]1.[Pd]
inactive: dose: 3.13 mg/kg/injection, schedule: Q04DX003 (ip), vehicle: distilled water + Tween-80 97 % of control | dose: 6.25 mg/kg/injection, schedule: Q04DX003 (ip), vehicle: distilled water + Tween-80 94 % of control | dose: 12.5 mg/kg/injection, schedule: Q04DX003 (ip), vehicle: distilled water + Tween-80 89 % of control | dose: 25.0 mg/kg/injection, schedule: Q04DX003 (ip), vehicle: distilled water + Tween-80 89 % of control | dose: 50.0 mg/kg/injection, schedule: Q04DX003 (ip), vehicle: distilled water + Tween-80 89 % of control

O=C(CSC1=NCCN1)c1ccc([N+](=O)[O-])cc1
inactive: dose: 25.0 mg/kg/injection, schedule: Q04DX003 (ip), vehicle: saline with Tween-80 94 % of control | dose: 50.0 mg/kg/injection, schedule: Q04DX003 (ip), vehicle: saline with Tween-80 93 % of control | [4] 93 % of control

C(=N\N=C\c1ccccc1)/c1ccccc1
inactive: [8] 100 % of control | [4] 103 % of control | [9] 100 % of control | [6] 91 % of control | [29] 97 % of control | [7] 96 % of control

CCCCC(O)C(=O)O (centres undefined)
inactive: [1] 94 % of control | [2] 96 % of control

O=C(Nc1nc(-c2ccccc2)cs1)Nc1cccc(Cl)c1Cl
inactive: [30] 101 % of control | [3] 90 % of control | [5] 97 % of control

O=c1[nH]c2ccccc2c2c3ccccc3nn12
inactive: [27] 113 % of control | [28] 103 % of control | [15] 96 % of control and 100 % of control | [16] 100 % of control and 106 % of control | [17] 103 % of control

CCOC1(C)OC2OC(COC(c3ccccc3)(c3ccccc3)c3ccccc3)C(O)C(O)C2O1 (centres undefined)
inactive: [10] 97 % of control | [11] 103 % of control | [12] 101 % of control | [13] 98 % of control | [14] 101 % of control

CCCCCCC(O)C[N+](=O)[O-] (centres undefined)
inactive: [30] 96 % of control | [5] 100 % of control

CC(C)C1CCC(C)C(C(O)(C(F)(F)F)C(F)(F)F)C1O (centres undefined)
inactive: [24] 101 % of control | [15] 98 % of control | [25] 101 % of control | [16] 98 % of control | [26] 97 % of control | [17] 94 % of control
